Data: publication PMC9323974, “Palladium(II) Complexes of Substituted Salicylaldehydes: Synthesis, Characterization and Investigation of Their Biological Profile” (Pharmaceuticals, 2022)

Assays:
CT DNA = CT DNA binding by UV-vis spectroscopy; set-up: species or system calf; settings: Wolfe–Shimer equation
Procedure: (§1) page 8: […] spectroscopy, viscosity measurements and fluorescence emission spectroscopy studies. […] UV-vis spectroscopy was used for the evaluation of the interaction of the compounds with CT DNA, and specifically the possible binding modes of the compounds to CT DNA. Control experiments with DMSO were performed and no changes in the spectra of CT DNA were observed. In order to determine the binding mode, the UV-vis spectra of the compounds were […] concentrations of CT DNA for diverse r (r = [complex]/[DNA]) values. Effective use of the changes […] compounds were calculated by the Wolfe-[…] equation (eq. […] εf) versus [DNA]: (eq. S1) where [DNA] = the concentration of DNA in base pairs, ε f= the extinction coefficient for the free compound at the corresponding λmax, εA = Aobsd/[compound] and εb= the extinction coefficient for the compound in the fully bound form. K b is given by the ratio of slope to the y intercept in plots [DNA]/(εA-εf) versus [DNA]. S3.2 CT DNA-binding studies by viscosity measurements […] presence of increasing amounts of the compounds. The experiments were executed at room temperature and the measurements are devised in a plot (η/η 0)1/3 versus r, where η = the viscosity of DNA in the presence of the compound, and η0 = the viscosity of neat DNA in buffer solution. […] In order to determine and confirm the DNA-binding mode of the compounds, a competitive study with EB as an intercalating marker is performed by fluorescence emission spectroscopy. Therefore, the EB-displacing ability of the compounds from its EB-DNA conjugate was examined. […] solution (150 mM NaCl and 15 mM trisodium citrate at pH 7.0). The potential intercalation of the compounds between the DNA-bases was studied by the addition of a certain amount of the 8 (1 picture or pasted object on this page, not shown here)

DPPH radical scavenging = settings: compound 0.1 mM
Procedure: (§2) S1 Antioxidant biological assay
The antioxidant activity of the compounds was evaluated via their ability to scavenge in
vitro free radicals such as DPPH and ABTS and to reduce H2O2. All the experiments were carried
S1.1 Determination of the reducing activity of the stable radical DPPH
To an ethanolic solution of DPPH (0.1 mM) an equal volume solution of the compounds
(0.1 mM) in ethanol was added. Absolute ethanol was also used as control solution. The absorbance
at 517 nm was recorded at room temperature after 30 and 60 min, in order to examine the possible
existence of a potential time–dependence of the DPPH radical scavenging activity [S1]. The DPPH–
scavenging activity of the compounds was expressed as the percentage reduction of the absorbance
values of the initial DPPH solution (DPPH%). NDGA and BHT were used as reference compounds. […]

EB-DNA adduct (CT DNA) = assay: EB-displacement from EB-DNA (fluorescence); assay type: binding, calf; settings: for ΔΙ/Ι0 (%) EB-DNA fluorescence quenching: [EB] = 20 μM, [DNA] = 26 μM; for kq (EB-DNA quenching constant): τo = 23 ns; for EB-DNA relative fluorescence emission intensity, % of the initial: λemission = 592 nm, final value
Procedure: as §1, with “here) page 9: compound solution into the EB-DNA adduct solution. The influence of the compounds on the EB- DNA solution was monitored through the changes of the fluorescence emission spectra at excitation wavelength (λex) at 540 nm [S6]. […] Bearing that in mind, the observed quenching of the EB-DNA solution is evidently associated to the displacement of EB from its EB-DNA adduct. The quenching efficiency (KSV) for each compound was assessed according to the Stern - Volmer equation (eq. S2) [S6]: (eq. S2) where I0 and I = the fluorescence emission intensities of EB-DNA in the absence and presence of the quencher, respectively, [Q] = the concentration of the quencher (i.e. compounds). K SV is obtained from the Stern-Volmer plots by the slope of the diagram I0/I versus [Q]. Taking τ0 = 23 ns […] M-1s-1) of the compounds can be determined according to e quation S3: KSV = kqτo (eq. S3) 9 (1 picture or pasted object on this page, not shown here)” for “here)”

[1] = ABTS radical cation scavenging; settings: compound 0.1 mM
Procedure: as §2
The antioxidant activity of the compounds was evaluated via their ability to scavenge in […]
vitro free radicals such as DPPH and ABTS and to reduce H2O2. […]
S1.2 Assay of radical cation ABTS–scavenging activity
The ABTS assay was performed to determine the activity of the compounds to scavenge the […]
radical cation ABTS. Initially, a water solution of ABTS was prepared (2 mM). ABTS radical cation […]
(ABTS+·) was produced by the reaction of ABTS stock solution with potassium persulfate (0.17 […]
mM) and the mixture was stored in the dark at room temperature for 12–16 h before its use. The […]
ABTS was oxidized incompletely because the stoichiometric reaction ratio of ABTS and potassium […]
persulfate is 1:0.5. The absorbance became maximal and stable only after more than 6 h of reaction […]
although the oxidation of the ABTS started immediately. The radical was stable in this form for […]
more than 2 days when allowed to stand in the dark at room temperature. Afterwards, the ABTS+· […]
solution was diluted in ethanol to an absorbance of 0.70 at 734 nm and 10 μL of diluted compounds or standards (0.1 mM) in DMSO were added. The absorbance was recorded out exactly 1 min after […]
initial mixing [S1]. The ABTS radical scavenging activity was expressed as the percentage inhibition of the absorbance of the initial ABTS solution (ABTS%). […]

| SMILES | Kb (DNA-binding constant) (CT DNA) | DPPH% (30 min) (DPPH radical scavenging) [%] | DPPH% (60 min) (DPPH radical scavenging) [%] | KSV (Stern–Volmer constant), EB-DNA (EB-DNA adduct (CT DNA)) | ΔΙ/Ι0 (%) EB-DNA fluorescence quenching (EB-DNA adduct (CT DNA)) [%] | kq (EB-DNA quenching constant) (EB-DNA adduct (CT DNA)) | ABTS% [1] [%] | EB-DNA relative fluorescence emission intensity, % of the initial (EB-DNA adduct (CT DNA)) [%] |
| --- | --- | --- | --- | --- | --- | --- | --- | --- |
| CCN(CC)c1ccc(C=O)c(O)c1 [4-Et2N-saloH, 4-diethylamino-salicylaldehyde, reference compound] | 5.06 (±0.14) × 10^5 M^−1 | 2.47 ± 0.09 | 3.20 ± 0.08 | 2.89 (±0.07) × 10^4 M^−1 | 43.4 | 1.25 (±0.03) × 10^12 M^−1s^−1 | 25.84 ± 0.34 |  |
| COc1ccc(C=O)c(O)c1 [4-OMe-saloH, 4-methoxy-salicylaldehyde, reference compound] |  | 4.16 ± 0.10 | 6.27 ± 0.25 |  |  |  | 40.83 ± 0.44 |  |
| O=Cc1cc(F)ccc1O [5-F-saloH, 5-fluoro-salicylaldehyde, reference compound] | 8.37 (±0.47) × 10^4 M^−1 | 3.96 ± 1.16 | 5.56 ± 1.06 | 3.79 (±0.11) × 10^4 M^−1 | 51.3 | 1.73 (±0.05) × 10^12 M^−1s^−1 | 19.57 ± 0.58 |  |
| CCN(CC)c1ccc(C=O)c([O][Pd][O]c2cc(N(CC)CC)ccc2C=O)c1 [Complex 1, [Pd(4-Et2N-salo)2]] | 3.66 (±0.22) × 10^5 M^−1 | 2.45 ± 0.09 | 4.00 ± 0.53 | 1.03 (±0.02) × 10^5 M^−1 | 51.2 | 4.49 (±0.09) × 10^12 M^−1s^−1 | 97.05 ± 0.48 | 48.8 |
| O=Cc1cc(Br)cc(Br)c1[O][Pd][O]c1c(Br)cc(Br)cc1C=O [Complex 2, [Pd(3,5-diBr-salo)2]] | 3.18 (±0.21) × 10^5 M^−1 | 7.99 ± 0.24 | 14.63 ± 0.53 | 1.00 (±0.02) × 10^5 M^−1 | 64.8 | 4.35 (±0.10) × 10^12 M^−1s^−1 | 50.46 ± 0.91 | 35.2 |
| O=Cc1cc(Cl)cc(Cl)c1[O-].O=Cc1cc(Cl)cc(Cl)c1[O-].[Pd+2] [Complex 3, [Pd(3,5-diCl-salo)2]] | 1.90 (±0.12) × 10^6 M^−1 | 4.60 ± 0.20 | 2.91 ± 0.11 | 7.53 (±0.18) × 10^4 M^−1 | 60.6 | 3.27 (±0.08) × 10^12 M^−1s^−1 | 63.45 ± 0.38 | 39.4 |
| O=Cc1cc(F)ccc1[O-].O=Cc1cc(F)ccc1[O-].[Pd+2] [Complex 4, [Pd(5-F-salo)2]] | 2.84 (±0.14) × 10^5 M^−1 | 14.82 ± 0.45 | 13.61 ± 0.48 | 5.71 (±0.10) × 10^4 M^−1 | 51.4 | 2.48 (±0.04) × 10^12 M^−1s^−1 | 63.30 ± 0.53 | 48.6 |
| COc1ccc(C=O)c([O-])c1.COc1ccc(C=O)c([O-])c1.[Pd+2] [Complex 5, [Pd(4-OMe-salo)2]] | 1.27 (±0.10) × 10^6 M^−1 | 2.29 ± 0.36 | 3.00 ± 0.25 | 4.26 (±0.08) × 10^4 M^−1 | 44.2 | 1.85 (±0.04) × 10^12 M^−1s^−1 | 96.66 ± 0.46 | 55.8 |
